Data set [1] has as its target 5-hydroxytryptamine receptor 6 (Homo sapiens, UniProt P50406). As to the kind of experiment: Displacement of [3H]LSD from human cloned 5-HT6R expressed in HEK293 cells. It is filed as cell-based.
Data set [2] concerns the target 5-hydroxytryptamine receptor 7 (Homo sapiens, UniProt P34969). As to the kind of experiment: Displacement of [3H]]-5-CT from human cloned 5-HT7R expressed in HEK293 cells. It is filed as cell-based. (Displacement assays read how much labelled ligand stays bound in the presence of the test substance.)
The target of data set [3] is 5-hydroxytryptamine receptor 2A (Rattus norvegicus, UniProt P14842). As to the kind of experiment: Displacement of [3H]-ketanserin from 5-HT2AR in rat cortex.
Sequence of 5-hydroxytryptamine receptor 2A (P14842 whole entry): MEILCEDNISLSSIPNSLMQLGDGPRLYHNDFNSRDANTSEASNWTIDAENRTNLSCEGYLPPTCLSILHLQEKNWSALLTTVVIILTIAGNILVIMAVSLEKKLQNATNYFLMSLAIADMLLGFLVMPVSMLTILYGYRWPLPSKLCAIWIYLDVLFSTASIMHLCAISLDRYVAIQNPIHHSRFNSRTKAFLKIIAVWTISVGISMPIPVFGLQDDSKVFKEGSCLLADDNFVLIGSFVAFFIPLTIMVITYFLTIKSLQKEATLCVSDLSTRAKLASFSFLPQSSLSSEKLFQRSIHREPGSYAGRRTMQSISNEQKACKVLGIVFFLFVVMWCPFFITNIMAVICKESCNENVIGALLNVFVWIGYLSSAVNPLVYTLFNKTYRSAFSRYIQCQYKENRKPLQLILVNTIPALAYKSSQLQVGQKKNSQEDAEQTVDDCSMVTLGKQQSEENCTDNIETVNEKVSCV
Data set [4] addresses T1, 5-hydroxytryptamine receptor 1A (Rattus norvegicus, UniProt P19327).
T1 sequence (P19327 whole entry): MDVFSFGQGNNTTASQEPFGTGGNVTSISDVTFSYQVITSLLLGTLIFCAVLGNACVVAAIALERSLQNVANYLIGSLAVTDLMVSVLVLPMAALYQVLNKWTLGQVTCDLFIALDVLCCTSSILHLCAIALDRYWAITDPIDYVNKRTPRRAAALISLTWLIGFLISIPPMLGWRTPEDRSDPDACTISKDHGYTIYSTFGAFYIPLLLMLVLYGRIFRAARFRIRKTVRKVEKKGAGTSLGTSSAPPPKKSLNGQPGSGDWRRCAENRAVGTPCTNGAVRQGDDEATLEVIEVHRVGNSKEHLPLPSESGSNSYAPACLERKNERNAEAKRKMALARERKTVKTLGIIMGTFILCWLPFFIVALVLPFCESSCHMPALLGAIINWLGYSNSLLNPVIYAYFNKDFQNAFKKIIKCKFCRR
Put plainly: Displacement of [3H]-8-OH-DPAT from 5-HT1AR in rat hippocampus. It is filed as tissue-based.

For a further data set, the target named is D(2) dopamine receptor (Rattus norvegicus, UniProt P61169). Put plainly: Displacement of [3H]-spiperone from dopamine D2 receptor in rat striatum.
Sequence of D(2) dopamine receptor (P61169 whole entry): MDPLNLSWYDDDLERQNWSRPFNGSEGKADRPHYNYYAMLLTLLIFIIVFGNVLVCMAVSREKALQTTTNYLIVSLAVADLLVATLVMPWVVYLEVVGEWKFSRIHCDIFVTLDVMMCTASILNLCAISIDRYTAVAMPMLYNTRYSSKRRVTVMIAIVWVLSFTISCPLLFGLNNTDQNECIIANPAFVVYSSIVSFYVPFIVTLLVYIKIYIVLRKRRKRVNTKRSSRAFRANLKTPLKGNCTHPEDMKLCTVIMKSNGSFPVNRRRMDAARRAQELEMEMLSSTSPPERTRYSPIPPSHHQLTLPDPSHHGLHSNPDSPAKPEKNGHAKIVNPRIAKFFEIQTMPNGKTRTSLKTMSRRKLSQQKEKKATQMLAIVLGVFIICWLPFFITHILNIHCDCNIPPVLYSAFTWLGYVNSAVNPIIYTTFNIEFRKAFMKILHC
The test system of data set [5] is Mus musculus. Put plainly: Anxiolytic-like activity in mouse assessed as increase in number of punished crossings at 1.25 to 5 mg/kg, ip dosed 60 mins before test by four plate test. It is filed as functional, organism-based.
The test system of data set [6] is Mus musculus. As to the kind of experiment: Antidepressant-like activity in mouse assessed as reduction in immobility time at 1.25 to 10 mg/kg, ip dosed 60 mins before test by forced swim test. It is filed as functional, organism-based.
Data set [7] deals with Mus musculus. Put plainly: Anxiolytic-like activity in mouse assessed as increase in number of punished crossings at 2.5 mg/kg, ip dosed 60 mins before test in presence of 0.3 mg/kg, sc 5HT1A receptor antagonist WAY 100635 by four plate test. It is filed as functional, organism-based.
Data set [8] deals with Mus musculus. As to the kind of experiment: Induction of hypothermia in mouse assessed as change in body temperature at 5 mg/kg, ip administered 30 mins before test and measured 90 mins post dose. The format is functional, organism-based. Set-up: dose 5 mg/kg.
Data set [9] has as its system Rattus norvegicus. As to the kind of experiment: Induction of lower lip retraction in rat assessed as lower lip retraction scores at 10 mg/kg, ip dosed 45 mins after 0.3 mg/kg, sc 5HT1A receptor antagonist WAY 100635. The format is functional.
The subject of data set [10] is Mus musculus. Put plainly: Induction of hypothermia in mouse assessed as change in body temperature at 10 mg/kg, ip administered 30 mins before test and measured 120 mins post dose. The format is functional, organism-based. Also on record: dose 10 mg/kg.
The test system of data set [11] is Rattus norvegicus. As to the kind of experiment: Inhibition of 8-OH-DPAT-induced lower lip retraction in rat assessed as lower lip retraction scores at 5 mg/kg, ip dosed 45 mins before 8-OH-DPAT. It is filed as functional. To be noted: route intraperitoneal.
Data set [12] has as its system Mus musculus. As to the kind of experiment: Induction of hypothermia in mouse assessed as change in body temperature at 10 mg/kg, ip administered 30 mins before test and measured 60 mins post dose. The format is functional, organism-based. Also on record: dose 10 mg/kg.
Data set [13] relates to Mus musculus. Put plainly: Induction of hypothermia in mouse assessed as change in body temperature at 10 mg/kg, ip administered 30 mins before test and measured 30 mins post dose. The format is functional, organism-based. Set-up: dose 10 mg/kg.
Data set [14] has as its system Rattus norvegicus. Put plainly: Induction of lower lip retraction in rat assessed as lower lip retraction scores at 10 mg/kg, ip dosed 15 mins before test. It is filed as functional. The conditions noted are these: route intraperitoneal.
Data set [15] relates to Mus musculus. As to the kind of experiment: Induction of hypothermia in mouse assessed as change in body temperature at 5 mg/kg, ip administered 30 mins before test and measured 120 mins post dose. Set-up: dose 5 mg/kg. It is filed as functional, organism-based.
The subject of data set [16] is Mus musculus. Put plainly: Effect on spontaneous locomotor activity in mouse at 2.5 mg/kg, ip. It is filed as ADME, organism-based. To be noted: in vivo. Also on record: dose 2.5 mg/kg, route intraperitoneal.
For data set [17], the system named is Mus musculus. As to the kind of experiment: Induction of hypothermia in mouse assessed as change in body temperature at 5 mg/kg, ip administered 30 mins before test and measured 30 mins post dose. The format is functional, organism-based. Also on record: dose 5 mg/kg.
For data set [18], the system named is Mus musculus. Put plainly: Induction of hypothermia in mouse assessed as change in body temperature at 10 mg/kg, ip administered 30 mins before test and measured 60 mins post dose in presence of 0.3 mg/kg, sc 5HT1A receptor antagonist WAY 100635. The format is functional, organism-based.
Data set [19] deals with Mus musculus. As to the kind of experiment: Induction of hypothermia in mouse assessed as change in body temperature at 10 mg/kg, ip administered 30 mins before test and measured 30 mins post dose in presence of 0.3 mg/kg, sc 5HT1A receptor antagonist WAY 100635. It is filed as functional, organism-based.
The subject of data set [20] is Rattus norvegicus. As to the kind of experiment: Induction of lower lip retraction in rat assessed as lower lip retraction scores at 5 mg/kg, ip dosed 15 mins before test. The conditions noted are these: route intraperitoneal. The format is functional.
Data set [21] concerns Mus musculus. Put plainly: Induction of hypothermia in mouse assessed as change in body temperature at 10 mg/kg, ip administered 30 mins before test and measured 90 mins post dose. It is filed as functional, organism-based. Set-up: dose 10 mg/kg.
The subject of data set [22] is Mus musculus. Put plainly: Anxiolytic-like activity in mouse assessed as increase in number of punished crossings at 2.5 mg/kg, ip dosed 60 mins before test by four plate test. It is filed as functional. To be noted: route intraperitoneal.
Data set [23] has as its system Mus musculus. Put plainly: Induction of hypothermia in mouse assessed as change in body temperature at 5 mg/kg, ip administered 30 mins before test and measured 60 mins post dose. The format is functional, organism-based. Also on record: dose 5 mg/kg.
In data set [24] the test system is Mus musculus. As to the kind of experiment: Antidepressant-like activity in mouse assessed as reduction in immobility time at 10 to 20 mg/kg, ip dosed 60 mins before test by forced swim test. The format is functional, organism-based.
The test system of data set [25] is Mus musculus. Put plainly: Effect on spontaneous locomotor activity in ip dosed mouse during 2 to 6 mins. It is filed as ADME, organism-based. The conditions noted are these: in vivo.

The source made the active and inactive calls. The calls are words filed in the database; no cut-off is given here.

Sequence of 5-hydroxytryptamine receptor 7 (P34969 whole entry): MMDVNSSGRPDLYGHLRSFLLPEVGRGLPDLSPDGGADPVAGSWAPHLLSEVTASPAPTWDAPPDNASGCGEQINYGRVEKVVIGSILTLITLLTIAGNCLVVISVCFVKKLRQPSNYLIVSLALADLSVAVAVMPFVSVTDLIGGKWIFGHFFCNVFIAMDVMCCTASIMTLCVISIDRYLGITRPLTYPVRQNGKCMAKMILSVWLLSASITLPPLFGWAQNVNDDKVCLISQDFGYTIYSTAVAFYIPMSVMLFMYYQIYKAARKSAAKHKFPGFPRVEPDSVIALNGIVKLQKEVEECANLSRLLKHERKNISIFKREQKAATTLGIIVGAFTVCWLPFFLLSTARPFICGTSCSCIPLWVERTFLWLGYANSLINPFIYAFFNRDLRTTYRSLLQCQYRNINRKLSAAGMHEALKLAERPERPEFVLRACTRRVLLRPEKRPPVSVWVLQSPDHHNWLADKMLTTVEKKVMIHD
Sequence of 5-hydroxytryptamine receptor 6 (P50406 whole entry): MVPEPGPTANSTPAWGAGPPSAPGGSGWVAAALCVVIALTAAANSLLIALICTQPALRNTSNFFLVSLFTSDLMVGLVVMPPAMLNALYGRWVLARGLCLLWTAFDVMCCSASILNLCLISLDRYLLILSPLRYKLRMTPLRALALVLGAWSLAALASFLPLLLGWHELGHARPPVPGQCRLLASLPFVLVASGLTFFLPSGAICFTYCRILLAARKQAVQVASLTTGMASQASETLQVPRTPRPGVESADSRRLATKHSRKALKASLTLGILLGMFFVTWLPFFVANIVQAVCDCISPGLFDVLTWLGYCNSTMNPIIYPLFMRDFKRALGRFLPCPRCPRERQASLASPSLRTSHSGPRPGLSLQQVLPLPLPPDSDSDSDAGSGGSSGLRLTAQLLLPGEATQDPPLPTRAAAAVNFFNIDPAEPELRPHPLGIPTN

On to `Cn1c(=O)c2c(ncn2CCCCN2CCN(c3ccccc3)CC2)n(C)c1=O`, for which the Ki in data set [1] was 14200 nM; in data set [2], 1150 nM; in data set [3], 507 nM; in [4], 23 nM; at D(2) dopamine receptor, 1010 nM.

For `Cn1c(=O)c2c(ncn2CCCCN2CCN(c3cccc(Cl)c3Cl)CC2)n(C)c1=O`, the Ki amounted to 68 nM in data set [1]; 73 nM in data set [2]; 162 nM in [3]; 55 nM in data set [4]; 15 nM at D(2) dopamine receptor.

Take `Cn1c(=O)c2c(ncn2CCCCCN2CCc3ccccc3C2)n(C)c1=O`: the Ki in data set [1] was 9140 nM; in data set [2], 1010 nM; in data set [3] it was 16400 nM; in data set [4], 171 nM; on D(2) dopamine receptor, 1220 nM.

As to `Cn1c(=O)c2c(ncn2CCCCN2CCc3ccccc3C2)n(C)c1=O`, the Ki is 11700 nM in [1]; 629 nM in data set [2]; 22000 nM in data set [3]; 239 nM in data set [4]; 7820 nM at D(2) dopamine receptor.

Regarding `CN1C(=O)CN=C(c2ccccc2)c2cc(Cl)ccc21`, in the data set on Mus musculus [5], the outcome was Active.

As for `Cl.Cn1c(=O)c2c(ncn2CCCCCN2CCN(c3ccccc3)CC2)n(C)c1=O`, the Ki in [1] amounted to 10300 nM; in data set [2], 346 nM; in [3], 308 nM; in [4], 11 nM; at D(2) dopamine receptor, 356 nM. Besides, the outcome with Mus musculus [6] and in the data set on Mus musculus [7] was inactive. In addition, the deltaT in the data set on Mus musculus [8] was -0.1 °C; in the data set on Mus musculus [10], -1.3 °C; in the data set with Mus musculus [12], -1.5 °C; with Mus musculus [13], -0.9 °C; in the data set on Mus musculus [15], 0.4 °C; in the data set on Mus musculus [17] it was -1.4 °C. Also, the deltaT with Mus musculus [18] was -0.9 °C; in the data set on Mus musculus [19], -0.2 °C; in the data set with Mus musculus [21], -1.4 °C; in the data set with Mus musculus [23], 1.1 °C. Further, the Activity in the data set with Rattus norvegicus [9] was 0.2; with Rattus norvegicus [11] it was 1.7; with Rattus norvegicus [14], 2; with Mus musculus [16] it was “Non-toxic”; in the data set with Rattus norvegicus [20], 0.4; in the data set on Mus musculus [22], 50%.

Consider `CN(C)CCCN1c2ccccc2CCc2ccccc21` [IMIPRAMINE], for which the result in the data set with Mus musculus [24] was Active. Besides, the Activity result in the data set with Mus musculus [25] is on record as “Non-toxic”.

For `Cn1c(=O)c2c(ncn2CCCN2CCN(c3ccccc3)CC2)n(C)c1=O`, the Ki in [1] is 20100 nM; in data set [2], 1430 nM; in data set [3] it was 92 nM; in data set [4], 571 nM; on D(2) dopamine receptor, 1090 nM.

For `Cn1c(=O)c2c(ncn2CCCN2CCN(c3cccc(Cl)c3)CC2)n(C)c1=O`, the Ki in data set [1] turned out to be 20300 nM; in data set [2], 2800 nM; in data set [3] it was 53 nM; in data set [4], 182 nM; on D(2) dopamine receptor, 3190 nM.

For `Cn1c(=O)c2c(ncn2CCCN2CCc3ccccc3C2)n(C)c1=O`, the Ki came to 12300 nM in [1]; 3620 nM in data set [2]; 10500 nM in [3]; 433 nM in [4]; 2710 nM at D(2) dopamine receptor.

In the case of `COc1ccccc1N1CCN(CCCCn2cnc3c2c(=O)n(C)c(=O)n3C)CC1`, the Ki in [1] was 1970 nM; in [2], 434 nM; in [3], 1050 nM; in [4], 1.2 nM; at D(2) dopamine receptor it was 65 nM.

Consider `COc1ccccc1N1CCN(CCCn2cnc3c2c(=O)n(C)c(=O)n3C)CC1`, for which the Ki in [1] is 12100 nM; in [2], 2210 nM; in data set [3] it was 927 nM; in data set [4], 119 nM; at D(2) dopamine receptor, 944 nM.

Consider `Cn1c(=O)c2c(ncn2CCCCN2CCN(c3ccc(Cl)c(Cl)c3)CC2)n(C)c1=O`, for which the Ki stood at 1900 nM in data set [1]; 179 nM in [2]; 460 nM in data set [3]; 105 nM in data set [4]; 73 nM at D(2) dopamine receptor.

As to `Cn1c(=O)c2c(nc(N3CCOCC3)n2CCCCN2CCN(c3cccc(Cl)c3)CC2)n(C)c1=O`, the Ki was found to be 207 nM in [1], 112 nM in data set [2], 21 nM in data set [3] and 22 nM in data set [4].

In turn, `CCOc1nc2c(c(=O)n(C)c(=O)n2C)n1CCCCN1CCN(c2ccccc2OC)CC1` had a Ki in data set [2] of 54 nM.

For orientation: Ki means the dissociation constant of the complex between target and ligand, obtained from inhibition or displacement. Low readings indicate tighter binding, high ones weaker binding.

Values taken from ChEMBL document CHEMBL3352178, “Antidepressant- and anxiolytic-like activity of 7-phenylpiperazinylalkyl-1,3-dimethyl-purine-2,6-dione derivatives with diversified 5-HT₁A receptor functional profile” (Bioorg Med Chem, 2015).
